In data set [1] the target is T1, Transient receptor potential cation channel subfamily V member 4 (Rattus norvegicus, UniProt Q9ERZ8). The data set is described as follows: Antagonist activity at rat TRPV4 expressed in HEK293 cells assessed as inhibition of 4alpha-PDD-induced intracellular calcium after 10 mins in presence of 45Ca2+ by microbeta liquid scintillation counting method. Type of data set: cell-based. (Calcium flux is commonly read through the fluorescence of an indicator in the cells.)
T1 sequence (Q9ERZ8 whole entry): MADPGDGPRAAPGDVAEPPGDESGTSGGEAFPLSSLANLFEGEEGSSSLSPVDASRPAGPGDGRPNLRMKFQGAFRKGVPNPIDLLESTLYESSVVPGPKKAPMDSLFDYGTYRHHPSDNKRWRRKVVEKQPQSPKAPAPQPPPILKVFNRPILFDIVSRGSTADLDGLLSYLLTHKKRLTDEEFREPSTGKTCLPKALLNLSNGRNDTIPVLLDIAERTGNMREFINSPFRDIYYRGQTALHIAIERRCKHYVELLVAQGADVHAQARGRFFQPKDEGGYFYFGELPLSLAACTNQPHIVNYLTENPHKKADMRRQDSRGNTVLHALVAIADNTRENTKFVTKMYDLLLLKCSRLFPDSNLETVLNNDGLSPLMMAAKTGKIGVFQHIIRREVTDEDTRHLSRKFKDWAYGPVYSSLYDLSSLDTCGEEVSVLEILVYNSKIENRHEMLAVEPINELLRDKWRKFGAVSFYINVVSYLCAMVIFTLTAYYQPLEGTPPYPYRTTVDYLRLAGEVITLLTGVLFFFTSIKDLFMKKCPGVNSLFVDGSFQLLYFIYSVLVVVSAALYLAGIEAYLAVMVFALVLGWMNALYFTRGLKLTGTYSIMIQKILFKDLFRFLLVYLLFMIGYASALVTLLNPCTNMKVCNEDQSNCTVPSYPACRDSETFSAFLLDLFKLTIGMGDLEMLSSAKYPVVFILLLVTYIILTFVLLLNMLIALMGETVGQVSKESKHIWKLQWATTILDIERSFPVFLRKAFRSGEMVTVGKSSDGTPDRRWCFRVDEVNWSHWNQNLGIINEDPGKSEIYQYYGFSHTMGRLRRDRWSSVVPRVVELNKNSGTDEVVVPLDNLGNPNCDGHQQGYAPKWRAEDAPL

The target of data set [2] is T2, Transient receptor potential cation channel subfamily V member 4 (Mus musculus, UniProt Q9EPK8). The data set is described as follows: Antagonist activity at mouse TRPV4 expressed in HEK293 cells assessed as inhibition of 4alpha-PDD-induced intracellular calcium after 10 mins in presence of 45Ca2+ by microbeta liquid scintillation counting method. Type of data set: cell-based.
T2 sequence (Q9EPK8 whole entry): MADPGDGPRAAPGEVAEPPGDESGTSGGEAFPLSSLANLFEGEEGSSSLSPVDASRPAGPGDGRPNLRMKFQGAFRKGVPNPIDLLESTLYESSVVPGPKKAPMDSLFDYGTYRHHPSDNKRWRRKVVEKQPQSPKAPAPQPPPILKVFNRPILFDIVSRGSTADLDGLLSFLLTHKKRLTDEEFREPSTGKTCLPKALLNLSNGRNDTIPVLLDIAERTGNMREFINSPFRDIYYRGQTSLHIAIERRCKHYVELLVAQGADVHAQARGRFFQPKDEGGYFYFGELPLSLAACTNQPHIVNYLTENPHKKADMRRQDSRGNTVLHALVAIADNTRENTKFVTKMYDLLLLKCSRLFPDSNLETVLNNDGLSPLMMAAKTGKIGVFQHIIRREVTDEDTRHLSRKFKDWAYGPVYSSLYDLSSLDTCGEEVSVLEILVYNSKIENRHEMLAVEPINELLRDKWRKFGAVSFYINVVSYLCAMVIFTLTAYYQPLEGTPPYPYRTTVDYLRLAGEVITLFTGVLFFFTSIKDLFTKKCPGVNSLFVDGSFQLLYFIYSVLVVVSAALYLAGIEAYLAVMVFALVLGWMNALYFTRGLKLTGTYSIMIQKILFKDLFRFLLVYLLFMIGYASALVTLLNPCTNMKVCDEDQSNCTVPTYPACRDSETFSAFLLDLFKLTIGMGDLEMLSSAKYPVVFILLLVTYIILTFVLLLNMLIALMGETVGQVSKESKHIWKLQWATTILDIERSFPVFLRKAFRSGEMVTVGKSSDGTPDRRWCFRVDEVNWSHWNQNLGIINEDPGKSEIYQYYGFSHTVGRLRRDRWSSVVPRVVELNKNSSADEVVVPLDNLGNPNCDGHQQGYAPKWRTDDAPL

In data set [3] the target is T1, Transient receptor potential cation channel subfamily V member 4. The data set is described as follows: Antagonist activity at rat TRPV4 expressed in HEK293 cells assessed as inhibition of 4alpha-PDD-induced current at holding potential of -40 mV by Whole cell patch-clamp method. In kind it is cell-based. (In general: Patch clamp records ionic current or voltage across a cell membrane.)

Data set [4] concerns the target T2, Transient receptor potential cation channel subfamily V member 4. The data set is described as follows: Antagonist activity at mouse TRPV4 expressed in HEK293 cells assessed as inhibition of 4alpha-PDD-induced current at holding potential of -40 mV by Whole cell patch-clamp method. In kind it is cell-based.
Data set [5] deals with T3, Transient receptor potential cation channel subfamily V member 4 (Homo sapiens, UniProt Q9HBA0).
T3 sequence (Q9HBA0 whole entry): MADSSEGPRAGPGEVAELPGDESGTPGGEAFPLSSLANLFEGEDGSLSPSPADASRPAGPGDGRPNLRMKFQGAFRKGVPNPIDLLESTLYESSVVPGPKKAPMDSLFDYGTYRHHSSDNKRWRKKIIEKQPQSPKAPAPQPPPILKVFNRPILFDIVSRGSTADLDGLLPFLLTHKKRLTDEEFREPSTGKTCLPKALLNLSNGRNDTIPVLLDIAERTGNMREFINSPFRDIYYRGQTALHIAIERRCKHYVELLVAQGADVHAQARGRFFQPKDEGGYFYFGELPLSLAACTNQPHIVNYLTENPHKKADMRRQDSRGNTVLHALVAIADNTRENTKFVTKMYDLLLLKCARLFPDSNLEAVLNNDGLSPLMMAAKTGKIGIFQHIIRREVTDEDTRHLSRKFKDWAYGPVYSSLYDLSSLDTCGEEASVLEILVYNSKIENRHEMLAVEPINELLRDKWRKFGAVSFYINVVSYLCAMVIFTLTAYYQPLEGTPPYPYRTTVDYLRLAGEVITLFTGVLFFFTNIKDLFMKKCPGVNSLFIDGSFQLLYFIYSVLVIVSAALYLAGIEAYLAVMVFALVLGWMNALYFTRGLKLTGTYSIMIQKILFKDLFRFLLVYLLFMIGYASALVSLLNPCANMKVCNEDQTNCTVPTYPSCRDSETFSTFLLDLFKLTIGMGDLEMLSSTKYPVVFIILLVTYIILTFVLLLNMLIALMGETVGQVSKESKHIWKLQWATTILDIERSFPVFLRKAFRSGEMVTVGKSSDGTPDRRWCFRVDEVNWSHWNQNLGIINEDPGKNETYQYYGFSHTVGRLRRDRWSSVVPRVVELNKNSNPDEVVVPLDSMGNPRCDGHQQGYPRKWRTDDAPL
Description: Antagonist activity at human TRPV4 expressed in HEK293 cells assessed as inhibition of 4alpha-PDD-induced current at holding potential of -40 mV by Whole cell patch-clamp method
The target in data set [6] is T3, Transient receptor potential cation channel subfamily V member 4. The data set is described as follows: Antagonist activity at human TRPV4 expressed in HEK293 cells assessed as inhibition of GSK634775A-induced calcium influx preincubated for 10 mins followed by GSK634775A addition by […] dye based FLIPR assay. Type of data set: cell-based.
Data set [7] concerns the target T1, Transient receptor potential cation channel subfamily V member 4. The data set is described as follows: Antagonist activity at rat TRPV4 expressed in HEK293 cells assessed as inhibition of GSK634775A-induced calcium influx preincubated for 10 mins followed by GSK634775A addition by […] dye based FLIPR assay. Type of data set: cell-based.
Data set [8] deals with T4, Voltage-dependent L-type calcium channel subunit alpha-1C (Cavia porcellus, UniProt O35505). The data set is described as follows: Inhibition of Cav1.2 in guinea pig ventricular myocytes assessed as decrease in current amplitude at 0.1 Hz by patch clamp method. Type of data set: cell-based.
T4 sequence (O35505 whole entry): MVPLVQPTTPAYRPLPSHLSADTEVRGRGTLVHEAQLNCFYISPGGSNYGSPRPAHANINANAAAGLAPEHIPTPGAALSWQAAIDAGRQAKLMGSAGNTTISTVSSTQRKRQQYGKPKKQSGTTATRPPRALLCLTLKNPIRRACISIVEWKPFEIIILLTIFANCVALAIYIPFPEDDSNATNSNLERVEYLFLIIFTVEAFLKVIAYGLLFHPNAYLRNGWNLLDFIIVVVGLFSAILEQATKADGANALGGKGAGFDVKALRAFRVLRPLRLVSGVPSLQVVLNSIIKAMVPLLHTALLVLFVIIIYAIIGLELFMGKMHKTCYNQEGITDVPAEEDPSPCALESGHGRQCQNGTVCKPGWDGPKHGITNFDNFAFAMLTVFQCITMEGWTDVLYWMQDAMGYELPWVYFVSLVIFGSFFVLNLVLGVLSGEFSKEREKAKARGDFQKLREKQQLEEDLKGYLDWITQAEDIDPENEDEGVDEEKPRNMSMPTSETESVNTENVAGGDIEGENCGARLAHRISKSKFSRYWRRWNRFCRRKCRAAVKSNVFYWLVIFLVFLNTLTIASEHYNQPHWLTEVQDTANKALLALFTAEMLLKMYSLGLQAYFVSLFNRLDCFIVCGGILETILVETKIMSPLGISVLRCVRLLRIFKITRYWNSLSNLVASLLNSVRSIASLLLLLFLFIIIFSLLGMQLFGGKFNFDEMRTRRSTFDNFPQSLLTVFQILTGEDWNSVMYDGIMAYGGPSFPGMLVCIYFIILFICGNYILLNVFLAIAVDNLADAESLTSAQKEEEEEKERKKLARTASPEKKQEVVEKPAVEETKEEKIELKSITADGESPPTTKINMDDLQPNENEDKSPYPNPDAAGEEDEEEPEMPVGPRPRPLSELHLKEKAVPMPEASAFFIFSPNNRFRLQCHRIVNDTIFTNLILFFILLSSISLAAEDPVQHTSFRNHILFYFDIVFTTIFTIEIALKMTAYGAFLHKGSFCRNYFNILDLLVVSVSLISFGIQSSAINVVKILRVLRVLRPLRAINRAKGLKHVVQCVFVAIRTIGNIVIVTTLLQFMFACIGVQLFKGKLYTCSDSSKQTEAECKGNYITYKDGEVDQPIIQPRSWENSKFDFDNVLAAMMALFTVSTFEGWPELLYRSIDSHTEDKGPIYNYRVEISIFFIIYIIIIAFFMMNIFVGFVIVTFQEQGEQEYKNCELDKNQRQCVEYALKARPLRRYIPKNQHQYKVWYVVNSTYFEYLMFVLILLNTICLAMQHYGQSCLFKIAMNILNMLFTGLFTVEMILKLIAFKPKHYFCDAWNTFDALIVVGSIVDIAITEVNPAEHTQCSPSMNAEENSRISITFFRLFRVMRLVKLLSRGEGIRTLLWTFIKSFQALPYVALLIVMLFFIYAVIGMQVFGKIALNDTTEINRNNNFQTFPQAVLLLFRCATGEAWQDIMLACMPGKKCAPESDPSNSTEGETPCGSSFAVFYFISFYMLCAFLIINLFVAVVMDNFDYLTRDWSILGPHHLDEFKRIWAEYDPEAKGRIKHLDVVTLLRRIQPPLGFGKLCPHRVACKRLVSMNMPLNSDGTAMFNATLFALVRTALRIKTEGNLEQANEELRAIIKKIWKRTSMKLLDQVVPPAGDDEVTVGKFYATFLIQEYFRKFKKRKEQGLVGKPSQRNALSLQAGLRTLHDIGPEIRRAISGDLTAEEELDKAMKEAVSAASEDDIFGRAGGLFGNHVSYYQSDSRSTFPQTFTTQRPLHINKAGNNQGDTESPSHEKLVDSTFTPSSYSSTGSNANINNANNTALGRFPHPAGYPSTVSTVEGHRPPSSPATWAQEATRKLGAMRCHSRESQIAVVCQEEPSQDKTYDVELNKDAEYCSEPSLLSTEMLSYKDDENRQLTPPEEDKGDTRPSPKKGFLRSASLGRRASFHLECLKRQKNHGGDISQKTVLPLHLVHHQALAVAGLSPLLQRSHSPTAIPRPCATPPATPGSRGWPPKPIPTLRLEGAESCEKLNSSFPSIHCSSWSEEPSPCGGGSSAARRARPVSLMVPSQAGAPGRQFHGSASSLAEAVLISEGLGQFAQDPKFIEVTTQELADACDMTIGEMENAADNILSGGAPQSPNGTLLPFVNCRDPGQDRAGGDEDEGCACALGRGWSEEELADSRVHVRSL
The target in data set [9] is T4, Voltage-dependent L-type calcium channel subunit alpha-1C. The data set is described as follows: Inhibition of Cav1.2 in guinea pig ventricular myocytes assessed as decrease in current amplitude at 2 Hz by patch clamp method. Type of data set: cell-based.
Data set [10] addresses Nuclear receptor subfamily 1 group I member 2 (Homo sapiens, UniProt O75469). The data set is described as follows: Activation of PXR (unknown origin). Type of data set: ADME. To be noted: human.
The nature of data set [11]: Clearance in iv dosed rat. In kind it is ADME, organism-based. To be noted: in vivo.
The nature of data set [12]: Half life in po dosed rat. Type of data set: ADME, organism-based. To be noted: in vivo.
Data set [13] in a line: Oral bioavailability in rat. To be noted: in vivo. In kind it is ADME, organism-based.
Data set [14] in a line: Clearance in iv dosed dog. Type of data set: ADME, organism-based, Canis lupus familiaris. To be noted: in vivo.
A short description of data set [15]: Half life in po dosed dog. In kind it is ADME, organism-based, Canis lupus familiaris. To be noted: in vivo.
Data set [16] in a line: Oral bioavailability in dog. In kind it is ADME, organism-based, Canis lupus familiaris. To be noted: in vivo.
Data set [17] addresses Transient receptor potential cation channel subfamily V member 1 (Homo sapiens, UniProt Q8NER1). The data set is described as follows: Inhibition of TRPV1 (unknown origin).
The target in data set [18] is Transient receptor potential cation channel subfamily A member 1 (Homo sapiens, UniProt O75762). The data set is described as follows: Inhibition of TRPA1 (unknown origin).
In data set [19] the target is Short transient receptor potential channel 3 (Homo sapiens, UniProt Q13507). The data set is described as follows: Inhibition of TRPC3 (unknown origin).
The target of data set [20] is Short transient receptor potential channel 6 (Homo sapiens, UniProt Q9Y210). The data set is described as follows: Inhibition of TRPC6 (unknown origin).
Data set [21] has as its target Transient receptor potential cation channel subfamily M member 8 (Homo sapiens, UniProt Q7Z2W7). The data set is described as follows: Inhibition of TRPM8 (unknown origin).

Regarding `CC(C)NCCN(C(C)C)S(=O)(=O)c1ccc(Cl)cc1Cl`, the IC50 – broadly, the concentration at which inhibition is half-maximal – in data set [1] is 3.2 µM; in [2], 5.9 µM.

`Cc1c(C(=O)Nc2cccc(C(F)(F)F)c2)cc(-c2ccccc2)n1CCCN1CCOCC1`: the half-maximal inhibitory concentration (IC50) in [3] was 0.133 µM; in data set [4], 0.017 µM; in data set [5], 0.048 µM.

As for `O=C(NC1(c2ccccc2)CC1)c1c(CN2CCC(N3CCCCC3)CC2)c(-c2cccc(C(F)(F)F)c2)nc2cc(Br)ccc12`, the half-inhibitory concentration (IC50) is 0.04 µM in [6]; 0.002 µM in data set [7]; greater than 25 µM in data set [17]; greater than 25 µM in data set [18]; greater than 25 µM in [19]; greater than 25 µM in [20]. The same compound gave an IC50 in data set [21] greater than 25 µM. The 30% effect concentration (IC30) in data set [8] and in data set [9] was 10.5 µM in each case. For the same compound, in [10], the Activity result is on record as “Not Active”. In addition, the clearance (commonly the rate of elimination divided by the concentration) in data set [11] was determined as 0.438 L/h/kg; in data set [14] it was 0.414 L/h/kg. The values for the half-life in data set [12] and in data set [15] were 10 h and 31 h, respectively. Further, the bioavailability (in general, dose-corrected exposure relative to a reference, in per cent) in data set [13] worked out at 31%; in data set [16], 53%.

For the origin of these results see ChEMBL document CHEMBL3994677, “Discovery of GSK2193874: An Orally Active, Potent, and Selective Blocker of Transient Receptor Potential Vanilloid 4” (ACS Med Chem Lett, 2017).
